Results on 20 compounds are retold here after patent US20240025892A1 (priority 2020, published 2024).

For one data set, the system named is CRTC2 (TORC2). As to the kind of experiment: CRTC2 nuclear translocation (PathHunter U2OS). It counts as cell-based. To be noted: maximal CRTC2 nuclear translocation, U2OS cells, 90 minutes, maximum dose 10 μM. The text has this: PathHunter® Nuclear Translocation cell lines are engineered to co-express two fusion proteins: a) Enzyme Donor (ED) tagged target protein; b) an Enzyme Acceptor (EA) tagged TAZ domain, derived from the CBP/P300 transcription factor, that localizes to the nucleus. Activation of the signaling pathway induces translocation of the ED-tagged target protein into the nucleus, which will force complementation of the two enzyme fragments, and result in the formation of a functional enzyme that will hydrolyze substrate and generate a chemiluminescent signal. U2OS CRTC2 (TORC2) translocation assays were performed in 384 well plates at Eurofins DiscoverX (Freemont, CA). Cells were treated with compounds for 90 minutes in experimental duplicates in 5 point dose response format (4-fold serial dilutions with a maximum dose of 10 μM) followed by […] readout on an Envision 2104 Multilabel Reader. In all experiments, forskolin was used as a positive control and maximal CRTC2 nuclear translocation induced by each compound is expressed as a percentage of the signal stimulated by forskolin.
Representative data are shown in FIG. 4A and presented as percent of the positive control (forskolin) signal.

A further data set concerns the target Recombinant SIK2 (Homo sapiens (Human), UniProt Q9H0K1). As to the kind of experiment: biochemical. To be noted: recombinant SIK2 2.5 nM, 1 μM ATP; read-out: SIK2 IC50. How it is done: (§1) Assays were performed in base reaction buffer (20 mM Hepes (pH 7.5), 10 mM MgCl2, 1 mM EGTA, 0.02% Brij35, 0.02 mg/mL BSA, 0.1 mM Na3VO4, 2 mM DTT, 1% DMSO). Compounds were dissolved in 100% DMSO in a 10 mM stock. […] Assays were performed for 20 minutes at room temperature, after which time ^33P-ATP (10 μCi/μL) was added followed by incubation for another 120 minutes at room temperature. Thereafter, radioactivity incorporated into the pEY peptide substrate was detected by filter-binding method. Kinase activity data were expressed as the percent remaining kinase activity in test samples compared to DMSO reactions. IC50 values and curve fits were obtained using Prism (GraphPad Software).

The target of a further data set is SIK1 (Homo sapiens (Human), UniProt P57059). Briefly: In vitro SIK1 kinase assay. It is filed as biochemical. The protocol: as §1
The target in a further data set is SIK3 (Homo sapiens (Human), UniProt Q9Y2K2). Briefly: In vitro SIK3 kinase assay. It counts as biochemical. How it is done:
as §1

The subject of a further data set is RANKL. As to the kind of experiment: RANKL gene expression in Ocy454 cells (RT-qPCR).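 Also: Ocy454 cells moved to 37 °C for osteocytic differentiation before compound exposure, RANKL mRNA by SYBR Green qRT-PCR, 2^−ΔΔCT with β-actin normalization, duplicate wells.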 To be noted: maximal RANKL fold induction versus DMSO, four hours. In general terms: In qPCR the cycle at which signal appears reflects the starting amount.

Sequence of SIK3 (Q9Y2K2 whole entry): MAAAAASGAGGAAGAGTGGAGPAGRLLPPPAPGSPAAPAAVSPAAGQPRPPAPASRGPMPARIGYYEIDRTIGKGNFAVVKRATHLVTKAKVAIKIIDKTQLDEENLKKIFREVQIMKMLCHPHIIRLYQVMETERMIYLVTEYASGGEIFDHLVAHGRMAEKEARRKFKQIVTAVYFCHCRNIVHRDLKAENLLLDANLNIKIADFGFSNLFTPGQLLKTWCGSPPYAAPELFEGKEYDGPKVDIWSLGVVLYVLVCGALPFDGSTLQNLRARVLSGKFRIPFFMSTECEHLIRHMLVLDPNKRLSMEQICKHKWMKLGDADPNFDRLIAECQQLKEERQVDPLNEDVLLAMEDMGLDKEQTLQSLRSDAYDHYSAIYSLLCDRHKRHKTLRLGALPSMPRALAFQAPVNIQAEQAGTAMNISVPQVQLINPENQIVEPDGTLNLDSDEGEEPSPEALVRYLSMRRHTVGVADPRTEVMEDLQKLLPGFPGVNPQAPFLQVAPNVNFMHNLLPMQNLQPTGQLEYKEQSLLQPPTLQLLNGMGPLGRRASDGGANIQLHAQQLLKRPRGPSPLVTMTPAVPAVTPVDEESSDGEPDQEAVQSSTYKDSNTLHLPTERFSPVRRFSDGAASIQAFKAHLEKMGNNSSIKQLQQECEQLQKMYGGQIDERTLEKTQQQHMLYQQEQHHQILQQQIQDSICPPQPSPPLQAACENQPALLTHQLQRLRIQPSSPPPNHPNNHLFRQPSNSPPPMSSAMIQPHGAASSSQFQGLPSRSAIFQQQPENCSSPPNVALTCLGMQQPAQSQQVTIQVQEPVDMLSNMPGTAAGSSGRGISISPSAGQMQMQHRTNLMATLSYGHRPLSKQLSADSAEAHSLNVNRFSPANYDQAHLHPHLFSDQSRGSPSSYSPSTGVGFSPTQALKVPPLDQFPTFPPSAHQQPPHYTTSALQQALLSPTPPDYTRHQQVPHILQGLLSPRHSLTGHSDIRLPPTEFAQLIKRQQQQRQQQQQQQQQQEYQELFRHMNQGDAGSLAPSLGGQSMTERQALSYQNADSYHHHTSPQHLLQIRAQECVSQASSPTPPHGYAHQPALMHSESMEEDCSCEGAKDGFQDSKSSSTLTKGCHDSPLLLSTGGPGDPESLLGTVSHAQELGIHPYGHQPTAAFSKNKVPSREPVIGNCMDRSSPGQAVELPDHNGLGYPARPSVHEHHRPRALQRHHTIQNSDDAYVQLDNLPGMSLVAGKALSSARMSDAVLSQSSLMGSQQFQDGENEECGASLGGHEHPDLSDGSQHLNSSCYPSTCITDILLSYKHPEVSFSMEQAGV
Sequence of Recombinant SIK2 (Q9H0K1 whole entry): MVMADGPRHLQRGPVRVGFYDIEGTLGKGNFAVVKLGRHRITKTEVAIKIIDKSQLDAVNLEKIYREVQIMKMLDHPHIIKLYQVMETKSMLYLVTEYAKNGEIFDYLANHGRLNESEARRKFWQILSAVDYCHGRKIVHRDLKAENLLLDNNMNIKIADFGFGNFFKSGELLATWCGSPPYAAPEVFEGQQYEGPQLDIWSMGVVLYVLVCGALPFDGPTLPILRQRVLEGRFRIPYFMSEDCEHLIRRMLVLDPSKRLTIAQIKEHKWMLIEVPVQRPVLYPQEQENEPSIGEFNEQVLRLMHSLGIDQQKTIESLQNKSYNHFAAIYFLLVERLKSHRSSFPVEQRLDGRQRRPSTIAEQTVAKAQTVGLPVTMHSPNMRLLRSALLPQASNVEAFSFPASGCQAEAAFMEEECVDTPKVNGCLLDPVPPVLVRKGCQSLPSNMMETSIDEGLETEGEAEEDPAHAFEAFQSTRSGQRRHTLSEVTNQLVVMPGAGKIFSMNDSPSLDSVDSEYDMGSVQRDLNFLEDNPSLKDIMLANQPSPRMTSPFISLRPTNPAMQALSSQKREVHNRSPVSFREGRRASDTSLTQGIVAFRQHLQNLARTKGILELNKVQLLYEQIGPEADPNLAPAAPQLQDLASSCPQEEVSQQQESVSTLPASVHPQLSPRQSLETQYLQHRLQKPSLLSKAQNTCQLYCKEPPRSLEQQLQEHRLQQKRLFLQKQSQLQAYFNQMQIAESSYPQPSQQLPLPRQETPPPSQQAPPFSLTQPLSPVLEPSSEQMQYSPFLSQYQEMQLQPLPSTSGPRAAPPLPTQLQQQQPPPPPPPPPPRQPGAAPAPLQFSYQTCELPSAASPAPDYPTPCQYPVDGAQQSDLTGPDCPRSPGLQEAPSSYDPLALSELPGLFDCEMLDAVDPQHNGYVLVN
Sequence of SIK1 (P57059 whole entry): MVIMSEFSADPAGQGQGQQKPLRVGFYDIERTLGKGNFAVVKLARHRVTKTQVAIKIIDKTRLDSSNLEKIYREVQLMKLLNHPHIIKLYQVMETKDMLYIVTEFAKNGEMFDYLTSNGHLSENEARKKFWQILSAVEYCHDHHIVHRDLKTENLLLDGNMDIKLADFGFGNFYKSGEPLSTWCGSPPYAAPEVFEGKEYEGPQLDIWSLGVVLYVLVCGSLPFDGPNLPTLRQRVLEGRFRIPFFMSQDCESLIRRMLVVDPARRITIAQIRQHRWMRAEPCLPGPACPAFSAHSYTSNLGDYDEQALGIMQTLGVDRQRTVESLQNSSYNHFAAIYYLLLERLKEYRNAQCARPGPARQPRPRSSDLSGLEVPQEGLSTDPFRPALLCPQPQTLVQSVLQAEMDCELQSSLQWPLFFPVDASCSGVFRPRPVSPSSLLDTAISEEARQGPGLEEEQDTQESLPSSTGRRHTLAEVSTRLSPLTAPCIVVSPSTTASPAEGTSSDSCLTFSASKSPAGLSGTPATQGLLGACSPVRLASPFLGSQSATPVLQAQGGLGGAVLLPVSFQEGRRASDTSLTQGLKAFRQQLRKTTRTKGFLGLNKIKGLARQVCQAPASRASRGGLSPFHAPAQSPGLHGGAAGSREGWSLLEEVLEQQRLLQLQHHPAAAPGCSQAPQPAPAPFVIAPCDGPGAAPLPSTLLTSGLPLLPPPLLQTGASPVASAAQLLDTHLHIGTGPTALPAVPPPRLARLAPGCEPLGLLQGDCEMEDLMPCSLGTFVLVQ

`CC1(COc2ccc3c(c2)ncn3-c2ccc3cccc(N4CC5(CC(N)C5)C4)c3n2)COC1` [Example 2, 2-[2-[5-[(3-Methyloxetan-3-yl)methoxy]benzimidazol-1-yl]-8-quinolyl]-2-azaspiro[3.3]heptan-6-amine]: the “CRTC2 Efficacy (% of forskolin)” value in the data set with CRTC2 (TORC2) is 162 % of forskolin. Besides, the IC50 (in general, the point on the concentration scale where inhibition reaches its midpoint) amounted to 42.1 nM at Recombinant SIK2, 625 nM at SIK1 and 38.7 nM on SIK3. In the data set on RANKL, the “RANKL Fold Induction” value was found to be 1.43 fold.

For `CC1(COc2ccc3c(c2)ncn3-c2ccc3cccc(N4CCCC4CN)c3n2)COC1` (centres unmarked) [Example 8, (1-(2-(5-((3-methyloxetan-3-yl)methoxy)-1H-benzo[d]imidazol-1-yl)quinolin-8-yl)pyrrolidin-2-yl)methanamine], the “CRTC2 Efficacy (% of forskolin)” value in the data set with CRTC2 (TORC2) is reported as 64.4 % of forskolin. Moreover, the IC50 at Recombinant SIK2 worked out at 11.6 nM; against SIK1 it was 50.1 nM; at SIK3 it was 30.8 nM. The “RANKL Fold Induction” value with RANKL was 17.47 fold.

For the compound `CN1CCOCC12CCN(c1cccc3ccc(-n4cnc5cc(OCC6(C)COC6)ccc54)nc13)CC2` [Example 10, 1-Methyl-9-[2-[5-[(3-methyloxetan-3-yl)methoxy]benzimidazol-1-yl]-8-quinolyl]-4-oxa-1,9-diazaspiro[5.5]undecane], in the data set with CRTC2 (TORC2), the “CRTC2 Efficacy (% of forskolin)” value was 75.8 % of forskolin. In addition, the IC50 at Recombinant SIK2 was found to be 2.11 nM; on SIK1 it was 37.8 nM; on SIK3, 3.71 nM. Also, the “RANKL Fold Induction” value in the data set with RANKL was determined as 58.64 fold.

Consider `NC1CCN(c2cccc3ncc(-n4cnc5cc(OCC6CS(=O)(=O)C6)ccc54)nc23)CC1` [Example 14, 3-(((1-(8-(4-Aminopiperidin-1-yl)quinoxalin-2-yl)-1H-benzo[d]imidazol-5-yl)oxy)methyl)thietane 1,1-dioxide], for which the “CRTC2 Efficacy (% of forskolin)” value in the data set on CRTC2 (TORC2) is 94.2 % of forskolin. The concentration for half-maximal inhibition (IC50) on Recombinant SIK2 turned out to be 16.1 nM; against SIK1, 109 nM; against SIK3 it was 6.08 nM. In the data set with RANKL, the “RANKL Fold Induction” value came out at 1.26 fold.

For `CC1(COc2ccc3c(c2)ncn3-c2ccc3cccc(C4CCNC4)c3n2)COC1` (centres unmarked) [Example 16, 2-(5-((3-Methyloxetan-3-yl)methoxy)-1H-benzo[d]imidazol-1-yl)-8-(pyrrolidin-3-yl)quinoline], the IC50 on Recombinant SIK2 stood at 3.39 nM; on SIK1 it was 16.6 nM; on SIK3, 4.43 nM. Besides, in the data set on RANKL, the “RANKL Fold Induction” value stood at 27.76 fold.

Consider `CN1CCC(c2cccc3ccc(-n4cnc5cc(OCC6(C)COC6)ccc54)nc23)C1` (centres unmarked) [Example 17, 2-(5-((3-Methyloxetan-3-yl)methoxy)-1H-benzo[d]imidazol-1-yl)-8-(1-methylpyrrolidin-3-yl)quinoline], for which the IC50 at Recombinant SIK2 is 1.04 nM; at SIK1, 53.3 nM; against SIK3, 15.4 nM. Moreover, the “RANKL Fold Induction” value with RANKL is reported as 12.73 fold.

On to `Cc1ccc(CNC(=O)c2ccn3c(-c4ccc(C#N)cc4)cnc3c2)cn1` [Example 19, 3-(4-cyanophenyl)-N-[(6-methyl-3-pyridyl)methyl]imidazo[1,2-a]pyridine-7-carboxamide], for which the “CRTC2 Efficacy (% of forskolin)” value in the data set with CRTC2 (TORC2) is given as 27 % of forskolin. For the same compound, the “RANKL Fold Induction” value in the data set on RANKL is recorded as 1.04 fold.

`Cn1c(CNC(=O)c2ccn3c(-c4ccc(C#N)cc4)cnc3c2)nc2ccccc21` [Example 23, 3-(4-cyanophenyl)-N-((1-methyl-1H-benzo[d]imidazol-2-yl)methyl)imidazo[1,2-a]pyridine-7-carboxamide]: the “CRTC2 Efficacy (% of forskolin)” value in the data set with CRTC2 (TORC2) is given as 19.8 % of forskolin. Moreover, the IC50 is 14.3 nM at Recombinant SIK2 and 861 nM at SIK3.

On to `N#Cc1ccc(-c2cnc3cc(C(=O)NCc4nc5ccccc5o4)ccn23)cc1` [Example 26, N-(benzo[d]oxazol-2-ylmethyl)-3-(4-cyanophenyl)imidazo[1,2-a]pyridine-7-carboxamide], for which the “CRTC2 Efficacy (% of forskolin)” value in the data set with CRTC2 (TORC2) was 1.3 % of forskolin. Moreover, the IC50 on Recombinant SIK2 amounted to 83 nM. In addition, the “RANKL Fold Induction” value in the data set on RANKL was found to be 0.55 fold.

For `N#Cc1ccc(-c2cnc3cc(C(=O)N4CCn5c(nc6ccccc65)C4)ccn23)cc1` [Example 28, 4-(7-(1,2,3,4-tetrahydrobenzo[4,5]imidazo[1,2-a]pyrazine-2-carbonyl)imidazo[1,2-a]pyridin-3-yl)benzonitrile], the “CRTC2 Efficacy (% of forskolin)” value with CRTC2 (TORC2) was 3.4 % of forskolin. The values for the IC50 at Recombinant SIK2 and against SIK3 were 597 nM and 8090 nM, respectively. Moreover, the “RANKL Fold Induction” value in the data set on RANKL is recorded as 1.25 fold.

With `CN(Cc1nc2ccccc2n1C)C(=O)c1ccn2c(-c3ccc(C#N)cc3)cnc2c1` [Example 29, 3-(4-Cyanophenyl)-N-methyl-N-[(1-methylbenzimidazol-2-yl)methyl]imidazo[1,2-a]pyridine-7-carboxamide], the “CRTC2 Efficacy (% of forskolin)” value in the data set with CRTC2 (TORC2) is 2.8 % of forskolin. Also, the IC50 at Recombinant SIK2 came to 608 nM; at SIK3, 8340 nM. For the same compound, the “RANKL Fold Induction” value in the data set with RANKL turned out to be 1.48 fold.

`CC1(COc2ccn3c(-c4ccc(C#N)cc4)cnc3c2)COC1` [Example 38, 4-[7-[(3-Methyloxetan-3-yl)methoxy]imidazo[1,2-a]pyridin-3-yl]benzonitrile]: the “CRTC2 Efficacy (% of forskolin)” value in the data set on CRTC2 (TORC2) is listed as 10.1 % of forskolin. Also, the IC50 on Recombinant SIK2 is 211 nM. In the data set on RANKL, the “RANKL Fold Induction” value is listed as 0.37 fold.

In the case of `CCc1nnc(-c2c(OC)cc(-c3cnc4cc(OCC5(C)COC5)ccn34)cc2OC)o1` [Example 39, 2-(2,6-dimethoxy-4-(7-((3-methyloxetan-3-yl)methoxy)imidazo[1,2-a]pyridin-3-yl)phenyl)-5-ethyl-1,3,4-oxadiazole], the IC50 at Recombinant SIK2 came to 136 nM; on SIK1, 2680 nM; at SIK3, 83.6 nM.

As for `Cc1ccc(CCOc2ccn3c(-c4ccc(C#N)cc4)cnc3c2)cn1` [Example 41, 4-[7-[2-(6-Methyl-3-pyridyl)ethoxy]imidazo[1,2-a]pyridin-3-yl]benzonitrile], the “CRTC2 Efficacy (% of forskolin)” value in the data set with CRTC2 (TORC2) is reported as 44.2 % of forskolin. In addition, the IC50 on SIK1 came to 233 nM; against SIK3, 12.6 nM. Further, in the data set with RANKL, the “RANKL Fold Induction” value amounted to 2.61 fold.

With `CCc1nnc(-c2c(OC)cc(-c3cnc4cc(OCc5ccc(C)nc5)ccn34)cc2OC)o1` [Example 42, 2-[2,6-Dimethoxy-4-[7-[(6-methyl-3-pyridyl)methoxy]imidazo[1,2-a]pyridin-3-yl]phenyl]-5-ethyl-1,3,4-oxadiazole], the IC50 was found to be 37 nM at Recombinant SIK2, 1180 nM at SIK1 and 47 nM against SIK3.

Take `CCn1cc(-c2ccn3c(-c4ccc(C#N)cc4)cnc3c2)cn1` [Example 45, 4-[7-(1-Ethylpyrazol-4-yl)imidazo[1,2-a]pyridin-3-yl]benzonitrile]: the “CRTC2 Efficacy (% of forskolin)” value with CRTC2 (TORC2) is 85 % of forskolin. The “RANKL Fold Induction” value with RANKL is given as 9.41 fold.

For `CCn1cc(-c2ccn3c(-c4ccc(C#N)c(C)c4)cnc3c2)cn1` [Example 47, 4-(7-(1-ethyl-1H-pyrazol-4-yl)imidazo[1,2-a]pyridin-3-yl)-2-methylbenzonitrile], the IC50 is 0.855 nM on Recombinant SIK2, 8.34 nM against SIK1 and 4.16 nM on SIK3. Further, the “RANKL Fold Induction” value in the data set with RANKL was 17.43 fold.

For the compound `CCc1nnc(-c2c(OC)cc(-c3cnn4cc(-c5cnn(C6CC6)c5)ccc34)cc2OC)o1` [Example 53, 2-(4-(6-(1-cyclopropyl-1H-pyrazol-4-yl)pyrazolo[1,5-a]pyridin-3-yl)-2,6-dimethoxyphenyl)-5-ethyl-1,3,4-oxadiazole], the IC50 at Recombinant SIK2 came to 1.77 nM; on SIK1, 17.4 nM; on SIK3, 2.62 nM.

`COc1cc(-c2cnc3cc(-c4cnn(C)c4)ccn23)cc(OC)c1-c1nnc(C2CC2)o1` [Example 60, 2-cyclopropyl-5-(2,6-dimethoxy-4-(7-(1-methyl-1H-pyrazol-4-yl)imidazo[1,2-a]pyridin-3-yl)phenyl)-1,3,4-oxadiazole]: the IC50 at Recombinant SIK2 turned out to be 1.49 nM; against SIK1, 4.45 nM; at SIK3, 1.64 nM. The “RANKL Fold Induction” value in the data set with RANKL is given as 307.25 fold.

As to `CCn1cc(-c2ccn3c(-c4ccc(-c5noc(C)n5)cc4)cnc3c2)cn1` [Example 62, 3-(4-(7-(1-Ethyl-1H-pyrazol-4-yl)imidazo[1,2-a]pyridin-3-yl)phenyl)-5-methyl-1,2,4-oxadiazole], the “CRTC2 Efficacy (% of forskolin)” value in the data set with CRTC2 (TORC2) is recorded as 8.6 % of forskolin. The 50% inhibitory concentration (IC50) came to 253 nM on Recombinant SIK2, 1130 nM on SIK1 and 1090 nM against SIK3.
